Read-outs that look alike come from different tables or passages of the source.
What was measured:
[1] = biological target: KHK-C expressed in NRK-52E cells (Homo sapiens (Human), UniProt P50053); test: KHK-C Cell-based Assay (EC50), NRK CTG, fructose-mediated ATP-depletion
human KHK-C = human KHK-C (Homo sapiens (Human), UniProt P50053); test: KHK Biochemical Assay (IC50), ADP-Glo, KHK-C; settings: average of at least two separate assays
Method in brief: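 Luminescent ADP-Glo read-out of ADP made by His-tagged KHK (BL21 (DE3) expression, Ni-NTA). Enzyme and compound sat together 30 min before ATP/fructose addition, then reacted 4 h at RT in Hepes pH 7.4 buffer with KCl, MgCl2, Triton-X. Quench 1 h, detection 1 h.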

[2] = read-out: NRK CTG EC50, NRK-52E cells, Cell-Titer Glo, 25 mM fructose

Chain of KHK-C expressed in NRK-52E cells (P50053 whole entry): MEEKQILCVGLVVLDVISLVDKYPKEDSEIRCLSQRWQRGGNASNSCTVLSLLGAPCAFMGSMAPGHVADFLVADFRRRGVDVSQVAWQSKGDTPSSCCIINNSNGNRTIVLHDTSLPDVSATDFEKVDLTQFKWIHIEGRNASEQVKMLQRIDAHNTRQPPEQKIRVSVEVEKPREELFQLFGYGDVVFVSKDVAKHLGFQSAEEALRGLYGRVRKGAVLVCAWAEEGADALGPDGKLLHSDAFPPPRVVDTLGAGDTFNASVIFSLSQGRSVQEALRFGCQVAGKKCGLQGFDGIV
Chain of human KHK-C (P50053 whole entry): as above

Row | Compound | EC50 [1] | IC50 (human KHK-C) | EC50 [1, 2] | IC50 (human KHK-C; ADP-Glo)
1 | C[C@H]1[C@H](CO)CN1c1nc2c(c(-c3ccc(C(N)=O)cc3)n1)CCC2 (racemic) [Example 267, (rac)-4-(2-((2S*,3R*)-3-(hydroxymethyl)-2-methylazetidin-1-yl)-6,7-dihydro-5H-cyclopenta[d]pyrimidin-4-yl)benzamide] | > 5000 nM |  |  | 
2 | C[C@H]1CCN1c1nc2c(c(-c3cccc([C@H]4C[C@@H](C(=O)O)C4)c3)n1)CCC2 (single isomer, unassigned) [Example 440] |  | 6.2 nM | 81.6 nM | 
3 | C[C@H]1CCN1c1nc2c(c(-c3cccc([C@H]4C[C@H](C(=O)O)C4)c3)n1)CCC2 (single isomer, unassigned) [Example 441] |  | 7 nM | 211 nM | 
4 | C[C@H]1CCN1c1nc2c(c(-c3cccc([S+](C)[O-])c3)n1)CCC2 (stereo in doubt) [Example 400, (S)-2-(2-methylazetidin-1-yl)-4-(3-(methylsulfinyl)phenyl)-6,7-dihydro-5H-cyclopenta[d]pyrimidine] | 320 nM | 156 nM |  | 
5 | C[C@H]1CCN1c1nc2c(c(-c3cccc(CN4CCCS4(=O)=O)c3)n1)CCC2 [Example 75, (S)-2-(3-(2-(2-methylazetidin-1-yl)-6,7-dihydro-5H-cyclopenta[d]pyrimidin-4-yl)benzyl)isothiazolidine 1,1-dioxide] | 54.7 nM |  |  | 18.9 nM
6 | C[C@H]1CNC(=O)c2ccc(-c3nc(N4C[C@@H](O)[C@@H]4C)nc4c3CCC4(F)F)cc2O1 [Example 87] | 46 nM |  |  | 3.4 nM
7 | C[C@@H]1CNC(=O)c2ccc(-c3nc(N4C[C@@H](O)[C@@H]4C)nc4c3CCC4(F)F)cc2O1 [Example 94] | 84.1 nM |  |  | 8.4 nM
8 | C[C@H]1[C@H](O)CN1c1nc2c(c(-c3ccc(C(=O)O)cc3)n1)CCC2 [Example 162, 4-(2-((2S,3R)-3-hydroxy-2-methylazetidin-1-yl)-6,7-dihydro-5H-cyclopenta[d]pyrimidin-4-yl)benzoic acid] | > 5000 nM |  |  | 93.1 nM
9 | C[C@H]1CCN1c1nc2c(c(-c3ccc4cnccc4c3)n1)CCC2 [Example 163, (S)-6-(2-(2-methylazetidin-1-yl)-6,7-dihydro-5H-cyclopenta[d]pyrimidin-4-yl)isoquinoline] | 251 nM |  |  | 49 nM
10 | C[C@H]1[C@H](O)CN1c1nc2c(c(-c3ccc4c(c3)OCCNC4=O)n1)CCC2 [Example 164, 8-(2-((2S,3R)-3-hydroxy-2-methylazetidin-1-yl)-6,7-dihydro-5H-cyclopenta[d]pyrimidin-4-yl)-3,4-dihydrobenzo[f][1,4]oxazepin-5(2H)-one] | 94.5 nM |  |  | 16.4 nM
11 | C[C@H]1c2ccccc2CN1c1nc2c(c(-c3ccc(C(N)=O)cc3)n1)CCC2 [Example 167, (S)-4-(2-(1-methylisoindolin-2-yl)-6,7-dihydro-5H-cyclopenta[d]pyrimidin-4-yl)benzamide] | > 5000 nM |  |  | > 5000 nM
12 | C[C@H]1[C@H](O)CN1c1nc(-c2ccc(C(N)=O)nc2)c2c(n1)C(F)(F)CC2 [Example 168, 5-(7,7-difluoro-2-((2S,3R)-3-hydroxy-2-methylazetidin-1-yl)-6,7-dihydro-5H-cyclopenta[d]pyrimidin-4-yl)picolinamide] | 144 nM |  |  | 23.3 nM
13 | C[C@H]1[C@@H](O)CN1c1nc2c(c(-c3ccc(C(N)=O)cc3)n1)CCC2 [Example 169, 4-(2-((2S,3S)-3-hydroxy-2-methylazetidin-1-yl)-6,7-dihydro-5H-cyclopenta[d]pyrimidin-4-yl)benzamide] | > 5000 nM |  |  | 4430 nM
14 | CNC(=O)c1ccc(-c2nc(N3C[C@@H](O)[C@@H]3C)nc3c2CCC3(F)F)cc1 [Example 171, 4-(7,7-difluoro-2-((2S,3R)-3-hydroxy-2-methylazetidin-1-yl)-6,7-dihydro-5H-cyclopenta[d]pyrimidin-4-yl)-N-methylbenzamide] | 165 nM |  |  | 23.5 nM
15 | NC(=O)c1ccc(-c2nc(N3Cc4n[nH]cc4C3CO)nc3c2CCC3)cc1 (stereo not drawn) [Example 172, 4-(2-(4-(hydroxymethyl)-2,6-dihydropyrrolo[3,4-c]pyrazol-5(4H)-yl)-6,7-dihydro-5H-cyclopenta[d]pyrimidin-4-yl)benzamide] | > 5000 nM |  |  | > 5000 nM
16 | NC(=O)c1ccc(-c2nc(N3CCn4nccc43)nc3c2CCC3)cc1 [Example 173, 4-(2-(2,3-dihydro-1H-imidazo[1,2-b]pyrazol-1-yl)-6,7-dihydro-5H-cyclopenta[d]pyrimidin-4-yl)benzamide] | > 5000 nM |  |  | > 5000 nM
17 | NC(=O)c1ccc(-c2nc(N3CCn4cncc43)nc3c2CCC3)cc1 [Example 174, 4-(2-(2,3-dihydro-1H-imidazo[1,5-a]imidazol-1-yl)-6,7-dihydro-5H-cyclopenta[d]pyrimidin-4-yl)benzamide] | > 5000 nM |  |  | > 5000 nM

Row | Compound | EC50 [1] | IC50 (human KHK-C) | EC50 [1, 2] | IC50 (human KHK-C; ADP-Glo)
18 | C[C@H]1[C@H](O)CN1c1nc(-c2ccc(C(N)=O)cc2)c2c(n1)C1CC2C1 [Example 176] | 2810 nM |  |  | 899 nM
19 | C[C@H]1COc2cc(-c3nc(N4C[C@@H](O)[C@@H]4C)nc4c3CCC4(F)F)ccc2C(=O)N1 [Example 179, (S)-8-(7,7-difluoro-2-((2S,3R)-3-hydroxy-2-methylazetidin-1-yl)-6,7-dihydro-5H-cyclopenta[d]pyrimidin-4-yl)-3-methyl-3,4-dihydrobenzo[f][1,4]oxazepin-5(2H)-one] | 386 nM |  |  | 34.8 nM
20 | C[C@H]1[C@H](F)CN1c1nc2c(c(-c3ccc4c(c3)C(=O)N(C)C4)n1)CCC2 [Example 203, 6-[2-[(2S,3R)-3-fluoro-2-methyl-azetidin-1-yl]-6,7-dihydro-5H-cyclopenta[d]pyrimidin-4-yl]-2-methyl-isoindolin-1-one] | 59.5 nM |  |  | 
21 | C[C@H]1CCN1c1nc2c(c(-c3ccc4c(c3)C(=O)N(C)C4)n1)CCC2 [Example 206, 2-methyl-6-[2-[(2S)-2-methylazetidin-1-yl]-6,7-dihydro-5H-cyclopenta[d]pyrimidin-4-yl]isoindolin-1-one] | 26.6 nM |  |  | 
22 | C[C@H]1CCN1c1nc(-c2cccc(C(N)=O)c2)c2c(n1)C1CC1C2 (stereo partly drawn) [Example 272, 3-(2-((S)-2-methylazetidin-1-yl)-5,5a,6,6a-tetrahydrocyclopropa[4,5]cyclopenta[1,2-d]pyrimidin-4-yl)benzamide] | 635 nM |  |  | 
23 | C[C@H]1CCN1c1nc2c(c(-c3ccc(C4(NS(C)(=O)=O)CC4)cc3)n1)CCC2 [Example 306, (S)—N-(1-(4-(2-(2-methylazetidin-1-yl)-6,7-dihydro-5H-cyclopenta[d]pyrimidin-4-yl)phenyl)cyclopropyl)methanesulfonamide] | 450 nM |  |  | 
24 | C[C@H]1[C@H](F)CN1c1nc2c(c(-c3cccc(CN)c3)n1)CCC2 [Example 352, [3-[2-[(2S,3R)-3-fluoro-2-methyl-azetidin-1-yl]-6,7-dihydro-5H-cyclopenta[d]pyrimidin-4-yl]phenyl]methanamine] | 201 nM |  |  | 
25 | C[C@H]1CCN1c1nc2c(c(-c3ccc(CNS(C)(=O)=O)cc3)n1)CCC2 [Example 361, N-[[4-[2-[(2S)-2-methylazetidin-1-yl]-6,7-dihydro-5H-cyclopenta[d]pyrimidin-4-yl]phenyl]methyl]methanesulfonamide] | 65.7 nM |  |  | 
26 | C[C@H]1CCN1c1nc2c(c(-c3nc4ccccc4[nH]3)n1)CCC2 [Example 389, 2-[2-[(2S)-2-methylazetidin-1-yl]-6,7-dihydro-5H-cyclopenta[d]pyrimidin-4-yl]-1H-benzimidazole] | 217 nM |  |  | 
27 | C[C@H]1CCN1c1nc(-c2ccc(C(N)=O)cc2)c2cn[nH]c2n1 [Example 401, (S)-4-(6-(2-methylazetidin-1-yl)-1H-pyrazolo[3,4-d]pyrimidin-4-yl)benzamide] | > 5000 nM |  |  | 
28 | C[C@H]1CCN1c1nc2c(c(-c3ccc4c(c3)CN(S(=O)(=O)CC#N)CC4)n1)CCC2 [Example 604, (S)-2-((7-(2-(2-methylazetidin-1-yl)-6,7-dihydro-5H-cyclopenta[d]pyrimidin-4-yl)-3,4-dihydroisoquinolin-2(1H)-yl)sulfonyl)acetonitrile] | 164 nM |  |  | 
29 | C[C@H]1CCN1c1nc2c(c(-c3cccc(C4CCS(=O)(=O)N4)c3)n1)CCC2 (stereo partly drawn) [Example 606, 3-(3-(2-((S)-2-methylazetidin-1-yl)-6,7-dihydro-5H-cyclopenta[d]pyrimidin-4-yl)phenyl)isothiazolidine 1,1-dioxide] | 37.5 nM |  |  | 
30 | C[C@H]1[C@H](O)CN1c1nc(-c2ccc3c(c2)CNCC3)c2c(n1)C(F)(F)CC2 [Example 612, (2S,3R)-1-(7,7-difluoro-4-(1,2,3,4-tetrahydroisoquinolin-7-yl)-6,7-dihydro-5H-cyclopenta[d]pyrimidin-2-yl)-2-methylazetidin-3-ol] | 32.5 nM |  |  | 
31 | C[C@H]1CCN1c1nc2c(c(-c3cn(C4CC4)nn3)n1)CCC2 [Example 644, 4-(1-cyclopropyltriazol-4-yl)-2-[(2S)-2-methylazetidin-1-yl]-6,7-dihydro-5H-cyclopenta[d]pyrimidine] | 709 nM |  |  | 
32 | C[C@H]1CCN1c1nc2c(c(-c3cn(CCO)nn3)n1)CCC2 [Example 645, 2-[4-[2-[(2S)-2-methylazetidin-1-yl]-6,7-dihydro-5H-cyclopenta[d]pyrimidin-4-yl]triazol-1-yl]ethanol] | 399 nM |  |  | 
33 | C[C@H]1CCN1c1nc(-c2ccc([C@H](N)C(F)F)cc2)c2c(n1)C(F)(F)CC2 [Example 650, (1S)-1-[4-[7,7-difluoro-2-[(2S)-2-methylazetidin-1-yl]-5,6-dihydrocyclopenta[d]pyrimidin-4-yl]phenyl]-2,2-difluoro-ethanamine] | 39.1 nM |  |  | 

Reference: US12410160B2 (Gilead Sciences, Inc., priority 2021, dated 2025)
